{"source": "patent US20250051300A1", "about": "“GRAM-NEGATIVE SPECIFIC ANTIBIOTICS SPARING EFFECT ON GUT MICROBIOME” (THE BOARD OF TRUSTEES OF THE UNIVERSITY OF ILLINOIS, priority 2021, published 2025)", "key": {"Lactobacillus reuteri": {"test_system": "Lactobacillus reuteri", "test": "MIC, gut commensal bacteria, micro-dilution broth"}, "K. pneumoniae AR0040": {"test_system": "K. pneumoniae AR0040", "test": "Acute pneumonia bacterial burden model", "assay_type": "in vivo, CD-1 mice", "conditions": "colistin-resistant K. pneumoniae, 100 mg/kg IP (FIG. 7C)"}, "E. cloacae AR0163": {"test_system": "E. cloacae AR0163", "test": "Bacterial sepsis survival model", "assay_type": "in vivo, CD-1 mice", "conditions": "colistin-resistant E. cloacae, 100 mg/kg IP twice daily for 3 days (FIG. 7F)"}, "Proteus mirabilis": {"test_system": "Proteus mirabilis", "test": "MIC, gut commensal bacteria, micro-dilution broth"}, "HFF-1 cells": {"test_system": "HFF-1 cells", "test": "Cell viability (Alamar Blue), mammalian cell line", "assay_type": "cell-based", "conditions": "Homo sapiens, HFF-1, 24 h, read-out: IC50, mammalian cell lines", "procedure": "(§1) Cell culture. HFF-1 cells (newborn) were obtained from the ATCC. […] A-549 cells (adult) were obtained from the ATCC. […] All cells were cultured at 37° C. under a 5% CO2 environment. Cell lines were authenticated externally by a commercial vendor and inspected visually in house. Cell lines were not tested for Mycoplasma contamination. The media was prepared by the University of Illinois School of Chemical Sciences Cell Media Facility. Cell viability. HFF-1 cells were seeded (8,000 cells/well) in a 96-well plate (Greiner Bio-One; catalogue number: 655180) and allowed to attach overnight. Cells were treated with investigational compounds in dimethyl sulfoxide (DMSO). […] Raptinal (100 μM) was used as a dead control. On each plate, at least three technical replicates per compound were performed. After 24 h post-treatment, cell viability was assessed using the Alamar Blue method. Stock Alamar Blue solution (10 μL 440 μM resazurin (Sigma-Aldrich; catalogue number: R7017) in sterile 1×PBS) was added to each well, and the plate was incubated for 3-4 h. Conversion of Alamar Blue was measured with a plate reader (SpectraMax M3; Molecular Devices) by fluorescence (excitation wavelength: 555 nm; emission wavelength: 585 nm; cutoff 570 nm; autogain). Percentage death was determined by normalizing to DMSO-treated cells and Raptinal-treated cells. […]"}, "A-549 cells": {"test_system": "A-549 cells", "test": "Cell viability (Alamar Blue), mammalian cell line", "assay_type": "cell-based", "conditions": "Homo sapiens, A549, read-out: IC50, mammalian cell lines (converted)", "procedure": "as §1"}, "Blautia producta": {"test_system": "Blautia producta", "test": "MIC, gut commensal bacteria, micro-dilution broth"}, "[1]": {"test": "Pharmacokinetic assessment in mice (serum, LC-MS/MS)", "assay_type": "in vivo, C57BL/6 mice", "conditions": "for Cmax / half-life / AUC: female, 200 mg/kg single dose; for Cmax / half-life: C57BL/6, mouse, serum; for AUC: C57BL/6, mouse serum", "procedure": "C57BL/6 mice were treated with lolamcyin at a single dose of 200 mg/kg via IP injection (formulated in 50% DMSO and 50% PEG400) or oral gavage (formulated in 20% DMSO, 30% water, and 50% PEG400) with three mice per time point (0, 15, 30, 45, 60, 120, 240, 480, 960, and 1,440 min). Mice were then sacrificed and serum concentrations of lolamycin were determined by liquid chromatography-tandem mass spectrometry (LC-MS/MS). Oral bioavailability was calculated by comparing the concentration of lolamycin in mouse serum levels resulting from these two administration routes.\nPharmacokinetic Assessment of compound 2 and lolamycin. The protocol was approved by the Institutional Animal Care and Use Committee (IACUC) at the University of Illinois at Urbana-Champaign. In these studies, 10- to 12-week-old female C57BL/6 mice purchased from Charles River Laboratories were used. Mice were randomly chosen and divided into subsequent groups. No additional randomization was used to allocate the experimental groups; blinding was not performed for subsequent quantitation. First, the pharmacokinetic assessment via intraperitoneal injection was determined. Compound 2 and lolamycin were formulated in 50% DMSO and 50% PEG400. Mice were treated with compound 2 (200 mg/kg) or lolamycin (200 mg/kg) via intraperitoneal injection, with three mice per time point (0, 15, 30, 45, 60, 120, 240, 480, 960, and 1,440 min). At the specified time points, mice were killed, blood was collected and centrifuged, and the serum was frozen at −80° C. until analysis. The proteins in a 10-μL aliquot of serum were precipitated by the addition of 50 μL methanol with the addition of 10 μL internal standard. The sample was then vortexed and centrifuged to remove the proteins. Supernatants were analyzed with the QTRAP 5500 LC/MS/MS system (Sciex) in the Metabolomics Laboratory of the Roy J. Carver Biotechnology Center, University of Illinois at Urbana-Champaign.\nNext, the pharmacokinetic assessment via oral gavage was determined. Lolamycin was formulated in 20% DMSO, 30% water, and 50% PEG400. Mice were treated with lolamycin (200 mg/kg) via oral gavage, with three mice per time point (0, 15, 30, 45, 60, 120, 240, 480, 960, and 1,440 min). At the specified time points, mice were killed, blood was collected and centrifuged, and the serum was frozen at −80° C. until analysis similar to before. Software Analyst 1.6.2 was used for data acquisition and analysis. The 1200 Series HPLC system (Agilent Technologies) includes a degasser, an autosampler and a binary pump. The liquid chromatography separation was performed on an Agilent Zorbax SB-Aq column (4.6×50 mm; 5 μm) with mobile phase A (0.1% formic acid in water) and mobile phase B (0.1% formic acid in acetonitrile). The autosampler was set at 10° C. The injection volume was 5 μL. Mass spectra were acquired using electrospray ionization with a voltage of 5,500 V. The source temperature was 450° C. The curtain gas, ion source gas 1 and ion source gas 2 were […], respectively. Multiple reaction monitoring was used for quantitation with external standard. The limit of quantitation of (S/N=10) was 1 nM. Pharmacokinetic parameters were calculated with a one-compartment model using a nonlinear regression program (Phoenix WinNonlin Version 8.1; Certara USA)."}, "[2]": {"test_system": "Bacteroides cellulosilyticus", "test": "MIC, gut commensal bacteria, micro-dilution broth"}, "[3]": {"test_system": "Faecalibacterium prausnitzii", "test": "MIC, gut commensal bacteria, micro-dilution broth"}}, "note": "Read-outs that look alike come from different tables or passages of the source.", "data": [{"smiles": "Cc1cc(-c2c[nH]nc2-c2cccc(OCc3cccc(C#N)c3)c2)cc(C)n1", "note": "[Compound 12, 3-((3-(4-(2,6-dimethylpyridin-4-yl)-1H-pyrazol-3-yl)phenoxy)methyl)benzonitrile]", "values": [{"measurement": "MIC", "setting": "Lactobacillus reuteri; Lactobacillus reuteri ATCC 23272, BHI-ych, listed as Lolamycin", "result": ">128", "unit": "µg/mL"}, {"measurement": "MIC", "setting": "Lactobacillus reuteri; Limosilactobacillus reuteri, ATCC23272", "result": "> 128", "unit": "µg/mL"}, {"measurement": "efficacy, bacterial burden", "setting": "K. pneumoniae AR0040", "result": "showed the efficacy"}, {"measurement": "efficacy, survival", "setting": "E. cloacae AR0163", "result": "showed the efficacy"}, {"measurement": "MIC", "setting": "Proteus mirabilis; Proteus mirabilis ATCC 35659, listed as Lolamycin", "result": ">128", "unit": "µg/mL"}, {"measurement": "MIC", "setting": "Proteus mirabilis; Proteus mirabilis, ATCC35659", "result": "> 128", "unit": "µg/mL"}, {"measurement": "IC50", "setting": "HFF-1 cells", "result": "85.3 ± 11.8", "unit": "µM"}, {"measurement": "IC50", "setting": "A-549 cells", "result": 41.9, "unit": "µM"}, {"measurement": "MIC", "setting": "Blautia producta", "result": "> 128", "unit": "µg/mL"}, {"measurement": "MIC", "setting": "Blautia producta; Blautia producta, ATCC27340", "result": "> 128", "unit": "µg/mL"}, {"measurement": "Cmax", "setting": "[1]; IP injection", "result": 38.2, "unit": "µM"}, {"measurement": "half-life", "setting": "[1]; IP injection", "result": 2.07, "unit": "h"}, {"measurement": "Cmax", "setting": "[1]; oral gavage", "result": 26.4, "unit": "µM"}, {"measurement": "half-life", "setting": "[1]; oral gavage", "result": 1.1, "unit": "h"}, {"measurement": "AUC", "setting": "[1]; IP injection", "result": 43400, "unit": "ng·h/mL"}, {"measurement": "AUC", "setting": "[1]; oral gavage", "result": 20500, "unit": "ng·h/mL"}, {"measurement": "Oral bioavailability", "setting": "[1]; mice, oral vs IP, 200 mg/kg", "result": "significant oral bioavailability"}, {"measurement": "MIC", "setting": "[2]; Bacteroides cellulosilyticus", "result": "> 128", "unit": "µg/mL"}, {"measurement": "MIC", "setting": "[2]; Bacteroides cellulosilyticus KLE 2342, BHI-ych, listed as Lolamycin", "result": ">128", "unit": "µg/mL"}, {"measurement": "MIC", "setting": "[3]; Faecalibacterium prausnitzii ATCC 27768, BHI-ych, listed as Lolamycin", "result": ">128", "unit": "µg/mL"}, {"measurement": "MIC", "setting": "[3]; Faecalibacterium prausnitzii, ATCC27768", "result": "> 128", "unit": "µg/mL"}]}]}
